Our source for the IC50 values is paper PMC7926936, “YM155 Inhibits NleB and SseK Arginine Glycosyltransferase Activity” (Pathogens, 2021).

Structures are written as SMILES.

Experiment [1] concerns the target SseK1 (Salmonella enterica, UniProt A0A0H3NK84). The experiment is described as follows: biochemical.
Experiment [2] concerns the target NleB (Citrobacter rodentium, UniProt A0A482PDI9). Kind of experiment: biochemical.

Sequence of SseK1 (A0A0H3NK84 whole entry, looked up): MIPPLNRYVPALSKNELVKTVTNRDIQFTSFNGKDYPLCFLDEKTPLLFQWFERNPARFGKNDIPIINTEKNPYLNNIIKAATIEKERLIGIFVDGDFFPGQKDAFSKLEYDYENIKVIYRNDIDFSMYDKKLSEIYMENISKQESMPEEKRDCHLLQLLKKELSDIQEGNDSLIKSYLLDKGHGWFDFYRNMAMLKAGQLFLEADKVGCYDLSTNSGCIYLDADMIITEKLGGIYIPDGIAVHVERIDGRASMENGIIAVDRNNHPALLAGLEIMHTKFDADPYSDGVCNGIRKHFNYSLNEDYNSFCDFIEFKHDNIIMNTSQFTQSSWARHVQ
Sequence of NleB (A0A482PDI9 whole entry, looked up): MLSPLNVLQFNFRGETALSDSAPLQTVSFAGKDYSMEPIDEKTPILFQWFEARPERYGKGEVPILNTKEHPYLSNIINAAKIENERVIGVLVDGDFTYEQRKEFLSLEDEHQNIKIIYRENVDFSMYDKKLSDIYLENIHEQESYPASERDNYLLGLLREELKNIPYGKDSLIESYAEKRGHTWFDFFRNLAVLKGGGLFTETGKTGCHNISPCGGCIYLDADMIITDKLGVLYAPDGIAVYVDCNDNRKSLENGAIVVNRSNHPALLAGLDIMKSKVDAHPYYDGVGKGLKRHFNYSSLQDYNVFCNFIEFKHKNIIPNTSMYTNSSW

`COCCn1c2c([n+](Cc3cnccn3)c1C)C(=O)c1ccccc1C2=O` [YM155]: the IC50 in experiment [1] and in experiment [2] was roughly 2000 nM throughout.
